Assay results reported in US20240238268A1, “TREATMENTS AND METHODS FOR TREATING ALZHEIMER'S DISEASE” (Board of Supervisors of Louisiana State University and …, priority 2021, published 2024).

Tests used:
aged 3xTg-AD female mice [1] = assay: T-maze spontaneous alternation; format: in vivo, mouse; conditions: 30 mg/kg, 7 days, IP
Method: FIGS. 20A and 20B are two graphs showing PRMT4 inhibitor (TP-064) or AAV knockdown of PRMT4 improved functional learning/memory in aged 3xTg-AD female mice. […] C57 but increased with administration of TP-064 (30 mg/kg, 7 days, IP). In FIG. 20B, in Novel Object Recognition, aged 3xTg-AD female mice had fewer number of entries in the novel zone v. C57. Treatment with TP-064 or brain-specific AAV knockdown of PRMT4 increased the number of entries. T-maze and novel object recognition test were utilized to analyze working/short-term and reference/long-term memory, respectively. * p<0.05 v. C57 via one-way ANOVA with Tukey's post-hoc analyses.

aged 3xTg-AD female mice [2] = assay: Neurovascular coupling: microvessel diameter after whisker stimulation, two-photon laser scanning microscopy; format: in vivo, mouse; conditions: TP-064 30 mg/kg for 7 days, IP or PRMT4-AAV knockdown
Method: FIGS. 11A-11D show neurovascular coupling dysfunction was alleviated with specific PRMT4 inhibitor (TP-064) or PRMT4-AAV knockdown in aged 3xTg-AD female mice. In FIG. 11A, neurovascular coupling was evaluated based on vascular tonicity changes in response to whisker stimulation (30 sec, 4 Hz) via two-photon laser scanning microscopy. FITC-dextran was injected IV for visualization of cerebral microvessels (Z=100 μm depth) in the cortex. In FIG. 11B, vessel diameters were measured before/after whisker stimulation, and before/after TP-064 (30 mg/kg for 7 days, IP) or PRMT4-AAV knockdown.
Determining if inhibition of PRMT4 can promote neurovascular coupling. […] One reason for this is the loss of neurovascular coupling is associated with the early progression of AD. Whisker-barrel stimulation is a well-established model for examining neurovascular coupling [Rodgers (our in-house collaborator) et al., 2006, 2008, 2009]. The inventors measured cortical microvessel vascular reactivity with two-photon laser scanning microscopy while evoking 30 sec of whisker stimulation in mice. Based on the inventors' findings that aged 3xTg-AD female mice had enhanced PRMT4 expression (FIGS. 2A-3C and 5A-5D), the inventors' results evidence that aged 3xTg-AD female mice presented decreased cortical microvessel diameter as compared to aged 3xTg-AD male mice 30 see (4 Hz) after whisker stimulation. […]

CNCCN1CCC(c2cc(CN(C)C(=O)c3cccc(Oc4ccccc4)c3)ccn2)CC1 [TP-064, N-Methyl-N-((2-(1-(2-(methylamino)ethyl)piperidin-4-yl)pyridin-4-yl)methyl)-3-phenoxybenzamide]
T-maze spontaneous alternation ratio (aged 3xTg-AD female mice [1]): increased | microvessel diameter after whisker stimulation (aged 3xTg-AD female mice [2]): increased
